# Assay results taken from publication PMC11126104 (Toxins, 2024).
# Columns and labels:
# [1] = tested on: Caco-2/HT-29MTX monolayers
# [2] = pH 7
# in vitro = settings: human
# [3] = rat, in vivo; cited from earlier work
# [4] = cited from earlier work
Molecule,FA (%) absorption category [1],"intestinal bioaccessibility, range of values [2]",Papp (in vitro),toxicity / cell viability (MTT) (Caco-2/HT-29MTX cells),absorption within the intestinal tract [3],log Po/w [4]
"CC(C)[C@H]1C(=O)O[C@H](C(C)C)C(=O)N(C)[C@@H](C(C)C)C(=O)O[C@H](C(C)C)C(=O)N(C)[C@@H](C(C)C)C(=O)O[C@H](C(C)C)C(=O)N1C [ENNB, enniatin B]",High,0.6-98.2%,91.6 ×10⁻⁶ cm/s,not affecting cell viability,,
"COc1cc2c(c3oc4cccc(O)c4c(=O)c13)[C@@H]1C=CO[C@@H]1O2 [STG, sterigmatocystin]",High,1.5-59.3%,,not affecting cell viability,,
aflatoxin B1 [AFB1],,,,not affecting cell viability,nearly total absorption,2.09
